Assay results reported in patent publication US20250129135A1, “Multi-Agonist and Use Thereof” (priority 2021, published 2025).
Starred links: 1 amine or outer side, 2 acyl side, 3 side chain; linkers in the order of their positions; H or OH if unused. Non-standard residues stand in square brackets, D forms with d. Groups on a side chain read outwards from the residue. No end group written: not given here. *: point of attachment. C20 diacid = O=C(O)CCCCCCCCCCCCCCCCCCC(=O)*; γGlu = O=C(O)[C@H](CCC(=O)[*:2])N[*:1]; AEEA = NCCOCCOCC(=O)O; Aib = CC(C)(N)C(=O)O

T1: human GIP receptor (human) (UniProt P48546)
T1 sequence (looked up): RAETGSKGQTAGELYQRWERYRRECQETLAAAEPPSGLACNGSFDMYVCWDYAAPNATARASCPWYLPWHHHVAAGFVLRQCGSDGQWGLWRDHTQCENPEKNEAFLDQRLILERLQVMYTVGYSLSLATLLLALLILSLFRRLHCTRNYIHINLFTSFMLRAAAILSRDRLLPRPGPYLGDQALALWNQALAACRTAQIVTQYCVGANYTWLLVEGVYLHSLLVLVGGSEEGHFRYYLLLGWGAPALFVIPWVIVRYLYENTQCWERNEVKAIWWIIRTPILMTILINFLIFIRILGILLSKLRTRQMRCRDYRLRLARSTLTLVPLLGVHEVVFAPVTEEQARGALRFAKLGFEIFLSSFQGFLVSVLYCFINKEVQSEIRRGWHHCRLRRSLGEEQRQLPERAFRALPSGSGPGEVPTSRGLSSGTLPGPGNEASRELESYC


Assays:
[1] = system: RIN-m5F cells; type: cell-based, rat
Summary of the method: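 After 60 min room-temperature exposure of HBSS-suspended RIN-m5F cells to compound and another 60 min with detection reagent, cellular cAMP level was determined.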

[2] = system: 3T3-L1 adipocytes
Summary of the method: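 Compound-induced cAMP was measured in mature 3T3-L1 adipocytes after 60 min room-temperature exposure to a 10-concentration, 3-fold dilution series, followed by 60 min with kit detection reagent and curve fitting. Differentiation used IBMX/dexamethasone/insulin (5 days), insulin with 10 uM rosiglitazone (3 days), then 2–3 days in 10% FBS.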

[3] = system: human primary liver cells; type: cell-based
Summary of the method: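 cAMP readout after 60 min with detection reagent, following 60 min room-temperature compound incubation. Cells were primary human liver cells thawed at 37° C and resuspended in HBSS.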

[4] = system: C57 BL/6J DIO mice; assay: In vivo pharmacodynamics in high-fat diet induced obesity (DIO) mice; design: species or system mouse; settings: Mean±SEM; for Weight change: Table 6-1; for LDL-C / TC (total cholesterol) / TG (plasma triglycerides): Table 7-1
Summary of the method: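 DIO mice (60 kcal% fat diet) dosed subcutaneously in 1×PBS, 5 ml/kg, every three days for 15 days. Daily body weight and food intake as % change from baseline; day 15 fasting glucose, plasma TC, LDL-C, TG, insulin and liver TG. Mean±SEM, one-way ANOVA with Dunnett's versus vehicle.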

[5] = Rat pharmacokinetics (PK) study; type: in vivo; settings: sc, male SD rats, subcutaneous 30 nmol/kg, plasma
Description: 7˜9 weeks old male SD rats (220-250 g, 3 rats/group) were subjected to subcutaneous injection of 30 nmol/kg compound. After administration, blood was collected through the jugular vein at time points 0.25, 2, 4, 8, 12, 16, 24, 48, 96, 120, and 144 hours. The blood was processed to obtain plasma samples and analyzed using LC-MS/MS. The blood concentration time curve was analyzed using Phoenix WinNonlin version 6.3 software (non compartment model), and PK parameters and half-life were calculated.

[6] = biological target: Human GLP-1R (Homo sapiens, UniProt P43220); settings: background statement; cited from earlier work
Chain of Human GLP-1R (P43220 24-463, species assumed): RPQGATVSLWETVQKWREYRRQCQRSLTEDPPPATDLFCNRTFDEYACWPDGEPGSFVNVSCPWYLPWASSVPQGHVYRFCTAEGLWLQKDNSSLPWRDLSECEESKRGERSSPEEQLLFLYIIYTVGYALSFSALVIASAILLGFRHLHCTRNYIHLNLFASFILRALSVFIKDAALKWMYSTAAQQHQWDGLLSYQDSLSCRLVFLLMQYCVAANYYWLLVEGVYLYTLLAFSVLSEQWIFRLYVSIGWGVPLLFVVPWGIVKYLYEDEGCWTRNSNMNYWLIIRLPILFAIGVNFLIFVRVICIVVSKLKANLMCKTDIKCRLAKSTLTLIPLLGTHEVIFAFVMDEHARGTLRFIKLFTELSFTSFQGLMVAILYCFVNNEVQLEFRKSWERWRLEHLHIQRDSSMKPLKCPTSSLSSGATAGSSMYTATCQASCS

[7] = biological target: GCG receptor (Homo sapiens, UniProt P47871); settings: background statement; cited from earlier work
Chain of GCG receptor (P47871 26-477): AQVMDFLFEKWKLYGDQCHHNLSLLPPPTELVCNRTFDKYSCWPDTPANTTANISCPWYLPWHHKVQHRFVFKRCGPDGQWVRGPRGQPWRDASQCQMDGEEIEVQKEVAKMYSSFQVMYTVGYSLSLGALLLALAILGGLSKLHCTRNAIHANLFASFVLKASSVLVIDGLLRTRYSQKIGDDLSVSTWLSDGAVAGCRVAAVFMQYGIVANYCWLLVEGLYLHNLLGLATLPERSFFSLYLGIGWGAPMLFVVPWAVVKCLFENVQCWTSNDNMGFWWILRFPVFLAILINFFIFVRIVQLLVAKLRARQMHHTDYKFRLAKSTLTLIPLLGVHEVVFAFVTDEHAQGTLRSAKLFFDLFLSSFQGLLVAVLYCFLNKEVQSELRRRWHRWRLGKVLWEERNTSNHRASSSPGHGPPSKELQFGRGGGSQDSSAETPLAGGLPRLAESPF

[8] = 26 weeks, cited from earlier work
[9] = Phase II clinical study, cited from earlier work
[10] = biological target: T1, human GIP receptor (human); assay: cell-based or functional assay
[11] = 10 nmol/kg s.c. Q3D for 15 days
[12] = 30 nmol/kg s.c. Q3D for 15 days

Molecule | Weight change ([4]; 3 nmol/kg s.c. Q3D for 15 days) | Weight change [4, 11] | Weight change [4, 12] | LDL-C ([4]; 3 nmol/kg, Day 15) | TC (total cholesterol) ([4]; 3 nmol/kg, Day 15) | TG (plasma triglycerides) ([4]; 3 nmol/kg, Day 15) | LDL-C ([4]; 30 nmol/kg, Day 15) | TC (total cholesterol) ([4]; 30 nmol/kg, Day 15) | TG (plasma triglycerides) ([4]; 30 nmol/kg, Day 15) | also measured
CC[C@H](C)[C@H](NC(=O)[C@H](Cc1ccccc1)NC(=O)[C@H](C)NC(=O)C(C)(C)NC(=O)[C@H](CCC(N)=O)NC(=O)[C@H](C)NC(=O)[C@H](CCCCNC(=O)COCCOCCNC(=O)COCCOCCNC(=O)CC[C@H](NC(=O)CCCCCCCCCCCCCCCCCCC(=O)O)C(=O)O)NC(=O)[C@H](CCCCN)NC(=O)[C@H](CC(=O)O)NC(=O)[C@H](CC(C)C)NC(=O)[C@](C)(CC(C)C)NC(=O)[C@@H](NC(=O)[C@H](CO)NC(=O)[C@H](Cc1ccc(O)cc1)NC(=O)[C@H](CC(=O)O)NC(=O)[C@H](CO)NC(=O)[C@@H](NC(=O)[C@](C)(Cc1ccccc1)NC(=O)[C@@H](NC(=O)CNC(=O)[C@H](CCC(N)=O)NC(=O)C(C)(C)NC(=O)[C@@H](N)Cc1ccc(O)cc1)[C@@H](C)O)[C@@H](C)O)[C@@H](C)CC)C(=O)N[C@@H](CCC(=O)O)C(=O)N[C@@H](Cc1ccc(O)cc1)C(=O)N[C@@H](CC(C)C)C(=O)N[C@@H](CC(C)C)C(=O)N[C@@H](CCC(=O)O)C(=O)N[C@@H](CO)C(=O)N[C@@H](Cc1c[nH]cn1)C(=O)N1CCC[C@H]1C(=O)N[C@@H](CO)C(=O)N[C@@H](CO)C(=O)NCC(=O)N[C@@H](C)C(=O)N1CCC[C@H]1C(=O)N1CCC[C@H]1C(=O)NC1(C(=O)N[C@@H](CO)C(N)=O)CC1 [Compound 3] | −21.2 ± 0.75% | −32.4 ± 2.94% | −51.6 ± 1.21% | 0.52 ± 0.033 mM | 3.42 ± 0.214 mM | 0.87 ± 0.066 mM | 0.37 ± 0.035 mM | 2.15 ± 0.079 mM | 0.55 ± 0.022 mM | EC50 [1]: 0.4 nM; EC50 [2]: 1.87 nM; EC50 [3]: 1.59 nM; Blood sugar (fasting blood glucose) ([4]; Table 8-1, 3 nmol/kg, Day 15): 107.5 ± 5.17 mg/dL; Insulin (blood) ([4]; Table 8-1, 3 nmol/kg, Day 15): 25.4 ± 16.90 mIU/L; Liver TG ([4]; Table 9-1, 3 nmol/kg, Day 15): 32.2 ± 2.99 mg; AUC(0-t) [5]: 6.69 µM·h; Cmax [5]: 149 nM; Tmax [5]: 21.3 h; half-life [5]: 19.1 h
CCCCCCCCCCCCCCCC(=O)N[C@@H](CCC(=O)NCCCC[C@H](NC(=O)[C@H](CC(=O)O)NC(=O)[C@H](CO)NC(=O)[C@@H](NC(=O)[C@H](Cc1ccccc1)NC(=O)[C@@H](NC(=O)CNC(=O)[C@H](CCC(N)=O)NC(=O)[C@H](CO)NC(=O)[C@@H](N)Cc1c[nH]cn1)[C@@H](C)O)[C@@H](C)O)C(=O)N[C@@H](CO)C(=O)N[C@@H](CCC(=O)O)C(=O)N[C@@H](Cc1ccc(O)cc1)C(=O)N[C@@H](CC(C)C)C(=O)N[C@@H](CC(=O)O)C(=O)N[C@@H](CO)C(=O)N[C@@H](CCC(=O)O)C(=O)N[C@@H](CCCNC(=N)N)C(=O)N[C@@H](C)C(=O)N[C@@H](CCCNC(=N)N)C(=O)N[C@@H](CC(=O)O)C(=O)N[C@@H](Cc1ccccc1)C(=O)N[C@H](C(=O)N[C@@H](C)C(=O)N[C@@H](Cc1c[nH]c2ccccc12)C(=O)N[C@@H](CC(C)C)C(=O)N[C@@H](CCC(=O)O)C(=O)N[C@@H](C)C(=O)NCC(=O)NCC(=O)O)C(C)C)C(=O)O [Cotadutide] | – | – | – | – | – | – | – | – | – | GLP-1 receptor activity EC50 relative to wild-type GLP-1 [6]: 29%; GCG receptor relative activity EC50 [7]: 12.8%; body weight, blood lipids, and levels of ALT and AST ([8]; 100-300 μg compared to liraglutide): dose-dependent reduction; reduction of HbA1c ([8]; each dose group compared to liraglutide): no significant advantage
CC[C@H](C)[C@H](NC(=O)[C@H](CC(C)C)NC(=O)[C@H](Cc1c[nH]c2ccccc12)NC(=O)[C@H](CCC(N)=O)NC(=O)[C@@H](NC(=O)[C@H](Cc1ccccc1)NC(=O)[C@H](C)NC(=O)[C@H](CCCCNC(=O)COCCOCCNC(=O)COCCOCCNC(=O)CC[C@H](NC(=O)CCCCCCCCCCCCCCCCCCC(=O)O)C(=O)O)NC(=O)[C@H](CCC(N)=O)NC(=O)[C@H](C)NC(=O)[C@@H](NC(=O)[C@H](CCCCN)NC(=O)[C@H](CC(=O)O)NC(=O)[C@H](CC(C)C)NC(=O)C(C)(C)NC(=O)[C@@H](NC(=O)[C@H](CO)NC(=O)[C@H](Cc1ccc(O)cc1)NC(=O)[C@H](CC(=O)O)NC(=O)[C@H](CO)NC(=O)[C@@H](NC(=O)[C@H](Cc1ccccc1)NC(=O)[C@@H](NC(=O)CNC(=O)[C@H](CCC(=O)O)NC(=O)C(C)(C)NC(=O)[C@@H](N)Cc1ccc(O)cc1)[C@@H](C)O)[C@@H](C)O)[C@@H](C)CC)[C@@H](C)CC)C(C)C)C(=O)N[C@@H](C)C(=O)NCC(=O)NCC(=O)N1CCC[C@H]1C(=O)N[C@@H](CO)C(=O)N[C@@H](CO)C(=O)NCC(=O)N[C@@H](C)C(=O)N1CCC[C@H]1C(=O)N1CCC[C@H]1C(=O)N1CCC[C@H]1C(=O)N[C@@H](CO)C(N)=O [Tirzepatide, reference compound] | −16.1 ± 0.71% | −21.6 ± 0.99% | −32.6 ± 1.60% | 0.62 ± 0.065 mM | 4.12 ± 0.322 mM | 0.97 ± 0.050 mM | 0.57 ± 0.057 mM | 3.28 ± 0.259 mM | 0.79 ± 0.068 mM | hypoglycemic effect ([9]; 1 mg dose vs Dulaglutide 1.5 mg): significantly lower than that of Dulaglutide 1.5 mg; weight loss effect ([9]; 1 mg dose): almost no weight loss effect
Y[Aib]QGTFTSDYSI[Aib]LDKIAQK([AEEA-AEEA-γGlu-C20 diacid])AFVQWLIAGGPSSGAPPPS-NH2 (N-terminus assumed; SMILES CC[C@H](C)[C@H](NC(=O)[C@H](CC(C)C)NC(=O)[C@H](Cc1c[nH]c2ccccc12)NC(=O)[C@H](CCC(N)=O)NC(=O)[C@@H](NC(=O)[C@H](Cc1ccccc1)NC(=O)[C@H](C)NC(=O)[C@H](CCCCNC(=O)COCCOCCNC(=O)COCCOCCNC(=O)CC[C@H](NC(=O)CCCCCCCCCCCCCCCCCCC(=O)O)C(=O)O)NC(=O)[C@H](CCC(N)=O)NC(=O)[C@H](C)NC(=O)[C@@H](NC(=O)[C@H](CCCCN)NC(=O)[C@H](CC(=O)O)NC(=O)[C@H](CC(C)C)NC(=O)C(C)(C)NC(=O)[C@@H](NC(=O)[C@H](CO)NC(=O)[C@H](Cc1ccc(O)cc1)NC(=O)[C@H](CC(=O)O)NC(=O)[C@H](CO)NC(=O)[C@@H](NC(=O)[C@H](Cc1ccccc1)NC(=O)[C@@H](NC(=O)CNC(=O)[C@H](CCC(N)=O)NC(=O)C(C)(C)NC(=O)[C@@H](N)Cc1ccc(O)cc1)[C@@H](C)O)[C@@H](C)O)[C@@H](C)CC)[C@@H](C)CC)C(C)C)C(=O)N[C@@H](C)C(=O)NCC(=O)NCC(=O)N1CCC[C@H]1C(=O)N[C@@H](CO)C(=O)N[C@@H](CO)C(=O)NCC(=O)N[C@@H](C)C(=O)N1CCC[C@H]1C(=O)N1CCC[C@H]1C(=O)N1CCC[C@H]1C(=O)N[C@@H](CO)C(N)=O) [Tirzepatide] | – | – | – | – | – | – | – | – | – | cAMP EC50, CHO cells stably overexpressing human GIP R [10]: 0.21 nM; cAMP Rel. A (%) against human GIP, human GIP R cells [10]: 86.2%
